Experimental findings from patent publication US20230027026A1, “FUSED PYRIMIDINE COMPOUNDS, COMPOSITIONS AND MEDICINAL APPLICATIONS THEREOF” (JUBILANT BIOSYS LIMITED, priority 2019, published 2023) are described below.

Format in all cases: cell-based
For one experiment, the system named is A431 cells. Nature of the experiment: Cellular proliferation (Alamar Blue) assay, A431. As to conditions: Homo sapiens, A-431; A431 cells, 72 hr, Alamar Blue; read-out: A431 IC50. In outline:
(§1)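 Seventy-two-hour growth assay with 3-fold compound titration (final 10–0.0005 μM) and Alamar Blue fluorescence end point, ex 540/em 590 nm.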

For experiment [1], the target named is EGFR (A767_dupASV) expressing Ba/F3 stable cell line (Homo sapiens, UniProt P00533, DUP767-769, cells depend on it). As to the kind of experiment: Cellular proliferation (Alamar Blue) assay, EGFR A767_dupASV Ba/F3. As to conditions: EGFR A767_dupASV Ba/F3, 72 hr, read-out: A767 IC50. A digest of the protocol: as §1
Sequence of EGFR (A767_dupASV) expressing Ba/F3 stable cell line (P00533 with tags, fused parts or gaps DUP767-769): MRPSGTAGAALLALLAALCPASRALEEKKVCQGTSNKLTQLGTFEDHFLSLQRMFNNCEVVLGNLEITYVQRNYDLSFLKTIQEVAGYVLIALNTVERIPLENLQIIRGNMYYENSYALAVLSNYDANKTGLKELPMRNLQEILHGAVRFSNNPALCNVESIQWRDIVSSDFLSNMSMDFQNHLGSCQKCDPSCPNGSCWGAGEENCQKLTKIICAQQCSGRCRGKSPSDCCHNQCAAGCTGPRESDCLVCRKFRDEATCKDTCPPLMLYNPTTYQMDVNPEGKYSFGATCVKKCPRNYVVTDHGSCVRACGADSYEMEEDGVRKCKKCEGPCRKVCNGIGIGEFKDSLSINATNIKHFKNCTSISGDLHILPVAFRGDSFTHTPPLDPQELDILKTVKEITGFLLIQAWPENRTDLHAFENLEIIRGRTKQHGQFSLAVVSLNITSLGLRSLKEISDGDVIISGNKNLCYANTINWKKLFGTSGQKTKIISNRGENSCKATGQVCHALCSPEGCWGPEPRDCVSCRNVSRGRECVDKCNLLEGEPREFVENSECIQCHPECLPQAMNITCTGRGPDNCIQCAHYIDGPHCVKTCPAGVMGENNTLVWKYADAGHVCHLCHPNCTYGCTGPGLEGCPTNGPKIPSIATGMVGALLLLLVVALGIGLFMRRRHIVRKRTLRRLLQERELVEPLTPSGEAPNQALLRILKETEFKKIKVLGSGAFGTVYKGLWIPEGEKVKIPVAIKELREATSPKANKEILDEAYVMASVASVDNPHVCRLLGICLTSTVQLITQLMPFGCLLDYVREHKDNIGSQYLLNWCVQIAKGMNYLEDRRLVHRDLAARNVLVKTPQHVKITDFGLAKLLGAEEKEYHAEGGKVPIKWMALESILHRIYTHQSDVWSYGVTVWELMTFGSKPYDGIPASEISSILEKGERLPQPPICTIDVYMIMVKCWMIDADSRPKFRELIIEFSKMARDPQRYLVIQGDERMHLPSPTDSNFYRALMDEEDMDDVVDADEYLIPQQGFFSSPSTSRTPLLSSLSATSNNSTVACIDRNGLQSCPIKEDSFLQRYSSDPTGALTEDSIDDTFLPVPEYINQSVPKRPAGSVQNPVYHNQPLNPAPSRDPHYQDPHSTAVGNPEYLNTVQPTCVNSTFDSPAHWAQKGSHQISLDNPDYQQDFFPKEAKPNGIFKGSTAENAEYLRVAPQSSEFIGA
Experiment [2] deals with EGFR(D770_N771insSVD) expressing Ba/F3 stable cell line (Homo sapiens, UniProt P00533, DUP768-770, cells depend on it). Nature of the experiment: Cellular proliferation (Alamar Blue) assay, EGFR D770_N771insSVD Ba/F3. The following applies: EGFR D770_N771insSVD Ba/F3, 72 hr, read-out: D770 IC50. A digest of the protocol:
as §1
(In general: Alamar Blue is a resazurin reagent that responds to reducing activity.)

Experiment [3] deals with HER2 (A775_G776insYVMA) expressing Ba/F3 stable cell line (Homo sapiens, UniProt P04626, DUP772-775, cells depend on it). As to the kind of experiment: Cellular proliferation (Alamar Blue) assay, HER2 YVMA Ba/F3. The following applies: HER2 A775_G776insYVMA Ba/F3, 72 hr, read-out: YVMA IC50. As for the experimental part: Example 3: Cellular Proliferation (Alamar Blue) Assays
Sequence of HER2 (A775_G776insYVMA) expressing Ba/F3 stable cell line (P04626 with tags, fused parts or gaps DUP772-775): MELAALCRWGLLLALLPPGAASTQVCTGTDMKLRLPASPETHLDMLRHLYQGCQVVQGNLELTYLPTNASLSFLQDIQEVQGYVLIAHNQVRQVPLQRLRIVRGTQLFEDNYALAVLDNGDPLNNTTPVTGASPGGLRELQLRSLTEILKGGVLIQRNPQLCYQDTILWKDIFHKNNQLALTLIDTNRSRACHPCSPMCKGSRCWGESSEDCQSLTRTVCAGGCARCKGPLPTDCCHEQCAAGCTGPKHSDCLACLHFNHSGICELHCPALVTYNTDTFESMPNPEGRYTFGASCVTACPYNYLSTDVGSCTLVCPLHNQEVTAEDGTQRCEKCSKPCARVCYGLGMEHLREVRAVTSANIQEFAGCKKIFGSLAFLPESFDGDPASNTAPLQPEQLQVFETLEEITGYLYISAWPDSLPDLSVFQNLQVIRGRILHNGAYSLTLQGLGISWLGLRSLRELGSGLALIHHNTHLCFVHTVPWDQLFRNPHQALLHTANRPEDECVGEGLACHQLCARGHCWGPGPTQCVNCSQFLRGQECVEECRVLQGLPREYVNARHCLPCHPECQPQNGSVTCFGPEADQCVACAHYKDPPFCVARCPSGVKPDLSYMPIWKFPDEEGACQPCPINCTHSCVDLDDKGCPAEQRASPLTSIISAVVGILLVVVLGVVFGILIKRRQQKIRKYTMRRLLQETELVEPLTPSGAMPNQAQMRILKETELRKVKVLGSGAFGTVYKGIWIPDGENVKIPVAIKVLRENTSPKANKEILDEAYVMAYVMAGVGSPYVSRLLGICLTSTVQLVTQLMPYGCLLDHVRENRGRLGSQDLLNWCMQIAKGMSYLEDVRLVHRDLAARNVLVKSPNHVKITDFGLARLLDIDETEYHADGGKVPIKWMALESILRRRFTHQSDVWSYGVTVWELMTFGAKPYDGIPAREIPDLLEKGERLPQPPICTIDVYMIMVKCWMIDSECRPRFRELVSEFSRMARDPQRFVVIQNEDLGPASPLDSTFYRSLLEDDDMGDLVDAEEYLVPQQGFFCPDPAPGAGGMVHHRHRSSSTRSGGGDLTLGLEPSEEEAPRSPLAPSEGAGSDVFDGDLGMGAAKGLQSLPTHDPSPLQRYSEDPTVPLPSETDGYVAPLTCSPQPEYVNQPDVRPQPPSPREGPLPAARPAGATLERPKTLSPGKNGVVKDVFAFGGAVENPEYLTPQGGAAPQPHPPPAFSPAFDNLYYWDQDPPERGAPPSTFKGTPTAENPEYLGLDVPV
• 1. EGFR(D770_N771insSVD) expressing Ba/F3 stable cell line • 2. EGFR (A767_dupASV) expressing Ba/F3 stable cell line • 3. A431 cells • 4. BTER2 (A775_G776insYVMA) expressing Ba/F3 stable cell line • 5. BTER2 (WT) expressing Ba/F3 stable cell line • 6. BT-474 cells
• 1. Seed cells at 5000 for A431 and 15,000 cells for Ba/F3 in 100 μL/well in complete media (for A431: DMEM with 10% FBS and for Ba/F3 cells: RPMI with 10% FBS) in 96-well tissue culture plate. Leave outer wells without cells for background measurements. Incubate at 37 degree Celsius in 5% CO2 humidified incubator for 16-18 hours. • 2. Add 0.025 ml of 5× concentration compound dilution or DMSO control. Final compound concentration range is 10-0.0005 μM prepared in 3-fold serial dilutions. Incubate for 72 hr at 37 degree Celsius in […] humidified incubator. • 3. Add 0.0125 mL Alamar Blue™ reagent to each well with multi-channel pipette and tap gently on each side of the plate to mix. Incubate for 3 hours at 37 degree Celsius in […] humidified incubator. • 4. Read plates on fluorescence reader (Tecan Spark Control, Device: Spark, Serial #: 1801006040) at 540 nm excitation, 590 nm emission wavelength. • 5. Data analysis was performed using XLfit 5.5.0.5.

The IC50 is the concentration that inhibits the measured activity by half.

Sequence of EGFR(D770_N771insSVD) expressing Ba/F3 stable cell line (P00533 with tags, fused parts or gaps DUP768-770): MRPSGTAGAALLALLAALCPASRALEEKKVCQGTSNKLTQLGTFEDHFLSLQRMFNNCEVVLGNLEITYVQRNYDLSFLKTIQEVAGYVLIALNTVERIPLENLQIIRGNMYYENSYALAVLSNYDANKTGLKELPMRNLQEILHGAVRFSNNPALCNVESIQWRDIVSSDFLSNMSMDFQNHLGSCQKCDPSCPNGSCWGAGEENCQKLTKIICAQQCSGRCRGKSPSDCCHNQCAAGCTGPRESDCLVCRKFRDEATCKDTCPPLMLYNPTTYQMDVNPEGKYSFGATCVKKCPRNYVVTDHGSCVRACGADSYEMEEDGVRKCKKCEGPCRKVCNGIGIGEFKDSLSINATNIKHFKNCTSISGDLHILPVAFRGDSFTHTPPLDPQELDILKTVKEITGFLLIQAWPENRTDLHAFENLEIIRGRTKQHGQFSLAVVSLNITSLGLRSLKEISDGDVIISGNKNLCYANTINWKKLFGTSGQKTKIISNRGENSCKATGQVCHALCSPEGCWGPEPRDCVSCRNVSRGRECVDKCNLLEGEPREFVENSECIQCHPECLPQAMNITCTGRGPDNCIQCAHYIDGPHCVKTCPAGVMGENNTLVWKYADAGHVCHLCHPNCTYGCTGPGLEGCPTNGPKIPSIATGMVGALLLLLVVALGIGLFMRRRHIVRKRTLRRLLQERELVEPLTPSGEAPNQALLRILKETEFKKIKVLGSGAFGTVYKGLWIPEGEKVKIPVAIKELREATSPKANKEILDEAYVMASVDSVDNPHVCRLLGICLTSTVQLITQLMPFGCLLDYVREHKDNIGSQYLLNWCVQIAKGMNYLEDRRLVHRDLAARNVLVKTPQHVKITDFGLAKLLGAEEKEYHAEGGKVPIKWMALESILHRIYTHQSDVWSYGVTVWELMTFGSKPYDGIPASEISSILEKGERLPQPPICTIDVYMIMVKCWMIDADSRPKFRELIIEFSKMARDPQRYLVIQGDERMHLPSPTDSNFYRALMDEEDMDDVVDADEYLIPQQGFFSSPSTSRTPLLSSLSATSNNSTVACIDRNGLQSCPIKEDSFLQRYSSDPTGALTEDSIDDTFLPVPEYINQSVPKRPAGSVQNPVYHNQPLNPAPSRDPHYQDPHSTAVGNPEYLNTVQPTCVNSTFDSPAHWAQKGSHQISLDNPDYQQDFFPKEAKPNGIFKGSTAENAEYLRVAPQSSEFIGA

Regarding `Cn1cc(Nc2ncc3c(n2)N(c2cccc(NC(=O)/C=C/CN4CCCCC4)c2)C(=O)N(Cc2ccccc2)C3)c(Cl)n1` [Compound 70, (E)-N-(3-(3-benzyl-7-((3-chloro-1-methyl-1H-pyrazol-4-yl)amino)-2-oxo-3,4-dihydropyrimido[4,5-d]pyrimidin-1(2H)-yl)phenyl)-4-(piperidin-1-yl)but-2-enamide], the IC50 in the experiment on A431 cells was ≥ 10000 nM. Also, the GI50 in experiment [1] amounted to 42 nM; in experiment [2] it was 72 nM; in experiment [3] it was 38 nM.
In the same order, the values of `C=CC(=O)Nc1cccc(N2C(=O)N(Cc3ccccc3)Cc3cnc(Nc4cn(C)nc4F)nc32)c1` [Compound 71, N-(3-(3-benzyl-7-((3-fluoro-1-methyl-1H-pyrazol-4-yl)amino)-2-oxo-3,4-dihydropyrimido[4,5-d]pyrimidin-1(2H)-yl)phenyl)acrylamide] are ≥ 10000 nM, 22 nM, 21 nM and 137 nM.
The matching figures for `C=CC(=O)Nc1cccc(N2C(=O)N(Cc3ccccc3)Cc3cnc(Nc4ccc(N5CCC(N(C)C)CC5)nc4)nc32)c1` [Compound 72, N-(3-(3-benzyl-7-((6-(4-(dimethylamino)piperidin-1-yl)pyridin-3-yl)amino)-2-oxo-3,4-dihydropyrimido[4,5-d]pyrimidin-1(2H)-yl)phenyl)acrylamide]: ≥ 10000 nM, 100 nM, 296 nM and 575 nM.
Regarding `C=CC(=O)Nc1cccc(N2C(=O)N(Cc3ccccc3)Cc3cnc(Nc4cn(C)nc4Cl)nc32)c1` [Compound 73, N-(3-(3-benzyl-7-((3-chloro-1-methyl-1H-pyrazol-4-yl)amino)-2-oxo-3,4-dihydropyrimido[4,5-d]pyrimidin-1(2H)-yl)phenyl)acrylamide], the concentration for half-maximal inhibition (IC50) in the experiment on A431 cells is ≥ 10000 nM. In addition, the GI50 in experiment [1] came out at 4 nM; in experiment [2] it was 20 nM; in experiment [3], 49 nM.
The matching figures for `Cn1cc(Nc2ncc3c(n2)N(c2cccc(NC(=O)/C=C/CF)c2)C(=O)N(Cc2ccccc2)C3)c(Cl)n1` [Compound 74, (E)-N-(3-(3-benzyl-7-((3-chloro-1-methyl-1H-pyrazol-4-yl)amino)-2-oxo-3,4-dihydropyrimido[4,5-d]pyrimidin-1(2H)-yl)phenyl)-4-fluorobut-2-enamide]: ≥ 10000 nM, 11 nM, 25 nM and 80 nM.
The matching figures for `C=CC(=O)Nc1cccc(N2C(=O)N(Cc3ccccc3)Cc3cnc(Nc4cccc5c4CCN5C)nc32)c1` [Compound 79, N-(3-(3-benzyl-7-((1-methylindolin-4-yl)amino)-2-oxo-3,4-dihydropyrimido[4,5-d]pyrimidin-1(2H)-yl)phenyl)acrylamide]: ≥ 10000 nM, 89 nM, 107 nM and 338 nM.
In the same order, the values of `CN(C)C/C=C/C(=O)Nc1cccc(N2C(=O)N(Cc3ccccc3)Cc3cnc(Nc4cccc5c4CCN5C)nc32)c1` [Compound 80, (E)-N-(3-(3-benzyl-7-((1-methylindolin-4-yl)amino)-2-oxo-3,4-dihydropyrimido[4,5-d]pyrimidin-1(2H)-yl)phenyl)-4-(dimethylamino)but-2-enamide] are ≥ 10000 nM, 343 nM, 806 nM and 296 nM.
In the case of `C=CC(=O)Nc1ccc(F)c(N2C(=O)N(Cc3ccccc3)Cc3cnc(Nc4cn(C)nc4Cl)nc32)c1` [Compound 81, N-(3-(3-benzyl-7-((3-chloro-1-methyl-1H-pyrazol-4-yl)amino)-2-oxo-3,4-dihydropyrimido[4,5-d]pyrimidin-1(2H)-yl)-4-fluorophenyl)acrylamide], in the experiment on A431 cells, the IC50 is ≥ 10000 nM. Moreover, the GI50 is 27 nM in experiment [1], 35 nM in experiment [2] and 13 nM in experiment [3].
In the same order, the values of `Cn1cc(Nc2ncc3c(n2)N(c2cccc(NC(=O)/C=C/CN4CCCCC4)c2)C(=O)N(Cc2ccccc2)C3)c(F)n1` [Compound 82, (E)-N-(3-(3-benzyl-7-((3-fluoro-1-methyl-1H-pyrazol-4-yl)amino)-2-oxo-3,4-dihydropyrimido[4,5-d]pyrimidin-1(2H)-yl)phenyl)-4-(piperidin-1-yl)but-2-enamide] are ≥ 10000 nM, 123 nM, 280 nM and 40 nM.
In the same order, the values of `COC/C=C/C(=O)Nc1cccc(N2C(=O)N(Cc3ccccc3)Cc3cnc(Nc4cn(C)nc4F)nc32)c1` [Compound 83, (E)-N-(3-(3-benzyl-7-((3-fluoro-1-methyl-1H-pyrazol-4-yl)amino)-2-oxo-3,4-dihydropyrimido[4,5-d]pyrimidin-1(2H)-yl)phenyl)-4-methoxybut-2-enamide] are ≥ 10000 nM, 1010 nM, 992 nM and 740 nM.
In the same order, the values of `CN(C)C/C=C/C(=O)Nc1ccc(F)c(N2C(=O)N(Cc3ccccc3)Cc3cnc(Nc4cn(C)nc4Cl)nc32)c1` [Compound 85, (E)-N-(3-(3-benzyl-7-((3-chloro-1-methyl-1H-pyrazol-4-yl)amino)-2-oxo-3,4-dihydropyrimido[4,5-d]pyrimidin-1(2H)-yl)-4-fluorophenyl)-4-(dimethylamino)but-2-enamide] are 1280 nM, 94 nM, 123 nM and 38 nM.
Turning to `Cn1cc(Nc2ncc3c(n2)N(c2cccc(NC(=O)/C=C/CF)c2)C(=O)N(Cc2ccccc2)C3)c(F)n1` [Compound 88, (E)-N-(3-(3-benzyl-7-((3-fluoro-1-methyl-1H-pyrazol-4-yl)amino)-2-oxo-3,4-dihydropyrimido[4,5-d]pyrimidin-1(2H)-yl)phenyl)-4-fluorobut-2-enamide], the half-maximal inhibitory concentration (IC50) in the experiment on A431 cells is > 10000 nM. For the same molecule, the GI50 in experiment [1] came to 22 nM; in experiment [2], 40 nM; in experiment [3], 101 nM.
As to `CN(C)C/C=C/C(=O)Nc1cccc(N2C(=O)N(c3ccccc3)Cc3cnc(Nc4cn(C5CCN(C)CC5)nc4Cl)nc32)c1` [Compound 106, (E)-N-(3-(7-((3-chloro-1-(1-methylpiperidin-4-yl)-1H-pyrazol-4-yl)amino)-2-oxo-3-phenyl-3,4-dihydropyrimido[4,5-d]pyrimidin-1(2H)-yl)phenyl)-4-(dimethylamino)but-2-enamide], in the experiment on A431 cells, the 50% inhibitory concentration (IC50) came to 8930 nM. The GI50 in experiment [1] stood at 926 nM; in experiment [2], 1110 nM; in experiment [3], 995 nM.
In the same order, the values of `CN(C)C/C=C/C(=O)Nc1cccc(N2C(=O)N(c3ccccc3)Cc3cnc(Nc4cnn(C5CCC(O)CC5)c4)nc32)c1` (stereo not shown) [Compound 107, (E)-4-(dimethylamino)-N-(3-(7-((1-(4-hydroxycyclohexyl)-1H-pyrazol-4-yl)amino)-2-oxo-3-phenyl-3,4-dihydropyrimido[4,5-d]pyrimidin-1(2H)-yl)phenyl)but-2-enamide] are ≥ 10000 nM, ≥ 10000 nM, ≥ 10000 nM and ≥ 10000 nM.
The matching figures for `C=CC(=O)Nc1cccc(N2C(=O)N(c3ccccc3)Cc3cnc(Nc4cnn(C5CCC(O)CC5)c4)nc32)c1` (stereo not shown) [Compound 108, N-(3-(7-((1-(4-hydroxycyclohexyl)-1H-pyrazol-4-yl)amino)-2-oxo-3-phenyl-3,4-dihydropyrimido[4,5-d]pyrimidin-1(2H)-yl)phenyl)acrylamide]: ≥ 10000 nM, 912 nM, 634 nM and 2020 nM.
`CN(C)C/C=C/C(=O)Nc1cccc(N2C(=O)N(c3ccccc3)Cc3cnc(Nc4ccc(N5CCN(C)CC5)nc4)nc32)c1` [Compound 109, (E)-4-(dimethylamino)-N-(3-(7-((6-(4-methylpiperazin-1-yl)pyridin-3-yl)amino)-2-oxo-3-phenyl-3,4-dihydropyrimido[4,5-d]pyrimidin-1(2H)-yl)phenyl)but-2-enamide]: the concentration for half-maximal inhibition (IC50) in the experiment with A431 cells was ≥ 10000 nM. The GI50 is 2320 nM in experiment [1], 6030 nM in experiment [2] and 3300 nM in experiment [3].
